We go through 8 compounds from US20190292167A1, “HETEROAROMATIC COMPOUNDS USEFUL FOR THE TREATMENT OF PROLIFERATIVE DISEASES” (Syros Pharmaceuticals, Inc., priority 2013, published 2019).

One test concerns the target T1, CDK7 (Homo sapiens, UniProt P50613).
T1 construct: purchased Life Technologies (Adapta kinase assay service)
Description: Adapta kinase assay (Life Technologies) against CDK7, co-factors cyclin H and MNAT1. It counts as biochemical. Conditions: read-out: CDK7 Inhibition.

The next test concerns HL-60. In words: Inhibition of cell proliferation, CellTiter-Glo, 72 hour. It counts as cell-based. As to conditions: Homo sapiens, Blood cancer cell line, read-out: Inhibition of Proliferation HL60. In general terms: ATP-based viability assays read luminescence as a measure of living cells.
The next test has as its system THP-1. The description is as above. It counts as cell-based. Conditions: Homo sapiens, Blood cancer cell line.
Another test relates to MV4-11. Described as above. Type of test: cell-based. As to conditions: Homo sapiens, Blood cancer cell line.
The test system of another test is RS4-11. Described as above. It counts as cell-based. As to conditions: Homo sapiens, Blood cancer cell line.
The subject of another test is hTERT-HME1. The test is described as above. Type of test: cell-based. Conditions: Breast Cancer/Breast cell line.
For another test, the system named is MDA-MB231. Described as above. Type of test: cell-based. Conditions: Homo sapiens, MDA-MB-231, Breast Cancer/Breast cell line.
The subject of another test is MCF-7. The test is described as above. It counts as cell-based. Conditions: Homo sapiens, MCF7, Breast Cancer/Breast cell line.
The next test concerns MCF-10A. Described as above. Type of test: cell-based. As to conditions: Homo sapiens, Breast Cancer/Breast cell line, read-out: Inhibition of Proliferation MCF10A.
The next test concerns T47D. The description is as above. Type of test: cell-based. As to conditions: Homo sapiens, Breast Cancer/Breast cell line.
A further test has as its system SKBR-3. The test is described as above. It counts as cell-based. Conditions: Homo sapiens, SK-BR-3, Breast Cancer/Breast cell line, read-out: Inhibition of Proliferation SKBR3.
For another test, the system named is A673. The description is as above. Type of test: cell-based. As to conditions: Homo sapiens, Ewing's Sarcoma cell line. As for the experimental part:
(§1) • Hs863T—DMEM (4 mM L-Glut, 4.5 g/L Glucose, 1 mM pyruvate, 1.5 g/l bicarb)+10% FBS • Hs822T—DMEM (4 mM L-Glut, 4.5 g/L Glucose, 1 mM pyruvate, 1.5 g/l bicarb)+10% FBS • A673—DMEM (4 mM L-Glut, 4.5 g/L Glucose, 1 mM pyruvate, 1.5 g/l bicarb)+10% FBS • SKES-1—McCoy's 5a Medium Modified (modified—1.5 mM L-glut, 2.2 g/L bicarb)+15% FBS • RD-ES—RPMI 1640+15% FBS.

The test system of another test is Hs822T. The description is as above. Conditions: Ewing's Sarcoma cell line. It counts as cell-based. How it is done:
as §1

The next test has as its system Hs863T. Described as above. Conditions: Ewing's Sarcoma cell line. Type of test: cell-based. As for the experimental part:
as §1

A further test concerns RD-ES. Described as above. Type of test: cell-based. Conditions: Ewing's Sarcoma cell line. As for the experimental part:
as §1

A further test concerns SKES-1. The description is as above. As to conditions: Homo sapiens, SK-ES1, Ewing's Sarcoma cell line, read-out: Inhibition of Proliferation SK-ES. It counts as cell-based. How it is done:
as §1

A further test deals with SAOS. The test is described as above. Type of test: cell-based. Conditions: Osteosarcoma cell line.
The test system of a further test is MNNG-Hos Cl#5. Described as above. It counts as cell-based. As to conditions: Osteosarcoma cell line.
The subject of a further test is 143B. The test is described as above. Type of test: cell-based. As to conditions: Homo sapiens, Osteosarcoma cell line.
The test system of the next test is Jurkat. Described as above. Type of test: cell-based. As to conditions: Homo sapiens, Jurkat, 72 h, Blood cancer cell line; 72 hour; read-out: Inhibition of Proliferation of Jurkat Cells. As for the experimental part:
The following cancer cell lines were tested with the media conditions indicated: […]

The structures appear in SMILES notation. Counter-ions that a name gives are not always drawn.

T1 sequence (P50613 whole entry): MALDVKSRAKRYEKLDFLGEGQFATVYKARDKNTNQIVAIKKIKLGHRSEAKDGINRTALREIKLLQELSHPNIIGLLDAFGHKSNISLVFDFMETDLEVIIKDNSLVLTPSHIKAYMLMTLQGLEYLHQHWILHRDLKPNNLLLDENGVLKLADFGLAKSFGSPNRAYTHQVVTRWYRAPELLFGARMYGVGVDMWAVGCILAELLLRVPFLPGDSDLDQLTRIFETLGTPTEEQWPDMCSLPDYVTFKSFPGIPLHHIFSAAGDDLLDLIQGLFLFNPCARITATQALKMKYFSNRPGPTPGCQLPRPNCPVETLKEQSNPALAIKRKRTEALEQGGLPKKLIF
T1 sequence (P51946 whole entry partner): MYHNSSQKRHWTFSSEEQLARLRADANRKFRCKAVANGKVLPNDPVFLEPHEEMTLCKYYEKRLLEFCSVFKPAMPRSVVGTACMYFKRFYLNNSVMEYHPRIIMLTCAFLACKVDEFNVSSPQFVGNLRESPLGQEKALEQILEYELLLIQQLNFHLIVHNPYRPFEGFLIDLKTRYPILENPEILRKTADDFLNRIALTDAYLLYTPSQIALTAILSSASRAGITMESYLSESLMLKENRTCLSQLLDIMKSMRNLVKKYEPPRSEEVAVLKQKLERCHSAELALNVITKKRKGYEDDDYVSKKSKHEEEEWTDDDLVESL
T1 sequence (P51948 whole entry partner): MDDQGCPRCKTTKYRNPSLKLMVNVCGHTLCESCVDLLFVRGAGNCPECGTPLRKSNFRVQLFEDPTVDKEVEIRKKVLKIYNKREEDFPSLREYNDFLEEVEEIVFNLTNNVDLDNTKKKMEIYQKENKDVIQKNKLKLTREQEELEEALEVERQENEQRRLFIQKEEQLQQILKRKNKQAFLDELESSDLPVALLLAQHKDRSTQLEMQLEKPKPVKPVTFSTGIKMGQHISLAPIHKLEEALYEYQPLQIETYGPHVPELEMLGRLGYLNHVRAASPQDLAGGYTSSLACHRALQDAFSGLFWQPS

As for `CN(C)C/C=C/C(=O)Nc1ccc(C(=O)N2CC[C@H](Nc3ncc(Cl)c(-c4c[nH]c5ccccc45)n3)C2)cc1` [Compound 101, (E)-N-(4-((S)-3-(5-chloro-4-(1H-indol-3-yl)pyrimidin-2-ylamino)pyrrolidine-1-carbonyl)phenyl)-4-(dimethylamino)but-2-enamide], the IC50 was 100 to 1000 nM on CDK7; more than 5000 nM in the test with HL-60; more than 5000 nM in the test on THP-1; less than 500 nM in the test on MV4-11; 500 to 5000 nM in the test on RS4-11; 500 to 5000 nM in the test with hTERT-HME1. Moreover, the IC50 is more than 5000 nM with MDA-MB231; more than 5000 nM with MCF-7; 500 to 5000 nM in the test with MCF-10A; more than 5000 nM in the test on T47D; more than 5000 nM with SKBR-3; 500 to 5000 nM in the test with A673. Also, the IC50 was more than 5000 nM in the test with Hs822T; more than 5000 nM in the test on Hs863T; more than 5000 nM in the test on RD-ES; 500 to 5000 nM in the test on SKES-1; more than 5000 nM in the test on SAOS; more than 5000 nM with MNNG-Hos Cl#5. In addition, the IC50 is more than 5000 nM in the test on 143B and 500 to 5000 nM in the test with Jurkat.

Take `CC(C)[C@]12O[C@H]1[C@@H]1O[C@]13[C@]1(O[C@H]1C[C@H]1C4=C(CC[C@@]13C)C(=O)OC4)[C@@H]2O` [Triptolide, triptolide, reference compound]: the IC50 in the test with HL-60, with THP-1, in the test on MV4-11, with RS4-11, in the test with hTERT-HME1 and with MDA-MB231 was less than 500 nM in each case. The IC50 in the test with MCF-7 is less than 500 nM; with MCF-10A, less than 500 nM; in the test with T47D, more than 5000 nM; with SKBR-3, less than 500 nM; in the test with A673, less than 500 nM; in the test with Hs822T, 500 to 5000 nM. Further, the IC50 in the test on Hs863T is more than 5000 nM; in the test on RD-ES it was less than 500 nM; with SKES-1, less than 500 nM; in the test with SAOS it was less than 500 nM; in the test with MNNG-Hos Cl#5, less than 500 nM; in the test on 143B, less than 500 nM.

Turning to `CN(C)C/C=C/C(=O)Nc1ccc(C(=O)N2CCC(Nc3ncc(C#N)c(-c4c[nH]c5ccccc45)n3)CC2)cc1` [Compound 102, (E)-N-(4-(4-(5-cyano-4-(1H-indol-3-yl)pyrimidin-2-ylamino)piperidine-1-carbonyl)phenyl)-4-(dimethylamino)but-2-enamide], the IC50 on CDK7 was less than 100 nM; with HL-60, less than 500 nM; with THP-1, less than 500 nM; with MV4-11, less than 500 nM; in the test on RS4-11, less than 500 nM; with hTERT-HME1, less than 500 nM. Also, the IC50 in the test with MDA-MB231 was less than 500 nM; with MCF-7 it was less than 500 nM; with MCF-10A, less than 500 nM; in the test with T47D it was more than 5000 nM; in the test with SKBR-3 it was more than 5000 nM; in the test on A673, less than 500 nM. Moreover, the IC50 in the test on Hs822T was 500 to 5000 nM; in the test with Hs863T, more than 5000 nM; in the test on RD-ES, less than 500 nM; in the test with SKES-1, less than 500 nM; with SAOS, less than 500 nM; in the test on MNNG-Hos Cl#5 it was more than 5000 nM. The values for the IC50 in the test on 143B and with Jurkat were more than 5000 nM and less than 500 nM, respectively.

In the case of `CN(C)C/C=C/C(=O)Nc1ccc(C(=O)N2CCC(Nc3ncc(Cl)c(-c4c[nH]c5ccccc45)n3)CC2)cc1` [Compound 100, (E)-N-(4-(4-(5-chloro-4-(1H-indol-3-yl)pyrimidin-2-ylamino)piperidine-1-carbonyl)phenyl)-4-(dimethylamino)but-2-enamide], the IC50 was less than 100 nM at CDK7; less than 500 nM in the test with HL-60; less than 500 nM in the test on THP-1; less than 500 nM in the test with MV4-11; less than 500 nM with RS4-11; less than 500 nM in the test on hTERT-HME1. Besides, the IC50 in the test on MDA-MB231 was less than 500 nM; in the test with MCF-7, less than 500 nM; in the test on MCF-10A it was less than 500 nM; with T47D it was more than 5000 nM; in the test on SKBR-3 it was more than 5000 nM; in the test with A673, less than 500 nM. The IC50 was 500 to 5000 nM in the test on Hs822T; more than 5000 nM in the test on Hs863T; less than 500 nM in the test on RD-ES; less than 500 nM in the test with SKES-1; less than 500 nM in the test with SAOS; 500 to 5000 nM in the test on MNNG-Hos Cl#5. Further, the IC50 in the test on 143B was more than 5000 nM; in the test with Jurkat, less than 500 nM.

In the case of `CN(C)C/C=C/C(=O)Nc1ccc(C(=O)N2CC[C@@H](Nc3ncc(C#N)c(-c4c[nH]c5ccccc45)n3)C2)cc1` [Compound 103, (E)-N-(4-((R)-3-(5-cyano-4-(1H-indol-3-yl)pyrimidin-2-ylamino)pyrrolidine-1-carbonyl)phenyl)-4-(dimethylamino)but-2-enamide], the IC50 at CDK7 was less than 100 nM; in the test with HL-60, less than 500 nM; with THP-1 it was less than 500 nM; in the test with MV4-11 it was less than 500 nM; in the test with RS4-11, less than 500 nM; with hTERT-HME1, less than 500 nM. In addition, the IC50 was less than 500 nM with MDA-MB231; more than 5000 nM in the test with MCF-7; less than 500 nM in the test with MCF-10A; more than 5000 nM in the test with T47D; more than 5000 nM in the test on SKBR-3; less than 500 nM with A673. Besides, the IC50 with Hs822T is more than 5000 nM; in the test on Hs863T, more than 5000 nM; in the test on RD-ES, less than 500 nM; in the test on SKES-1, less than 500 nM; in the test with SAOS, less than 500 nM; in the test with MNNG-Hos Cl#5, 500 to 5000 nM. The IC50 in the test with 143B is more than 5000 nM; with Jurkat it was less than 500 nM.

On to `CN(C)C/C=C/C(=O)Nc1ccc(C(=O)N2CC[C@@H](Nc3ncc(Cl)c(-c4c[nH]c5ccccc45)n3)C2)cc1` [Compound 104, (E)-N-(4-((R)-3-(5-chloro-4-(1H-indol-3-yl)pyrimidin-2-ylamino)pyrrolidine-1-carbonyl)phenyl)-4-(dimethylamino)but-2-enamide.TFA], for which the IC50 on CDK7 is less than 100 nM; in the test on HL-60, less than 500 nM; in the test on THP-1 it was less than 500 nM; in the test on MV4-11, less than 500 nM; in the test with RS4-11, less than 500 nM; with hTERT-HME1, less than 500 nM. The IC50 was less than 500 nM in the test on MDA-MB231; 500 to 5000 nM in the test on MCF-7; less than 500 nM with MCF-10A; more than 5000 nM in the test with T47D; more than 5000 nM in the test with SKBR-3; less than 500 nM in the test on A673. For the same compound, the IC50 in the test on Hs822T is 500 to 5000 nM; in the test with Hs863T it was more than 5000 nM; in the test on RD-ES, less than 500 nM; with SKES-1, less than 500 nM; with SAOS it was less than 500 nM; in the test on MNNG-Hos Cl#5, more than 5000 nM. Further, the IC50 with 143B is more than 5000 nM; in the test with Jurkat it was less than 500 nM.

`CN1CC[C@H](c2c(O)cc(O)c3c(=O)cc(-c4ccccc4Cl)oc23)[C@H](O)C1` [Flavopiridol, flavopiridol, reference compound]: the IC50 in the test on HL-60, in the test with THP-1, with MV4-11, with RS4-11, in the test with hTERT-HME1 and in the test with MDA-MB231 was less than 500 nM in each case. The IC50 is 500 to 5000 nM with MCF-7; less than 500 nM in the test on MCF-10A; more than 5000 nM in the test with T47D; less than 500 nM in the test on SKBR-3; less than 500 nM with A673; more than 5000 nM in the test on Hs822T. Also, the IC50 was more than 5000 nM in the test on Hs863T; less than 500 nM in the test on RD-ES; less than 500 nM with SKES-1; less than 500 nM with SAOS; 500 to 5000 nM in the test on MNNG-Hos Cl#5; 500 to 5000 nM in the test on 143B.

As for `N#Cc1cnc(N[C@@H]2CCN(C(=O)c3ccc(NC(=O)/C=C/CN4CCCC4)cc3)C2)nc1-c1c[nH]c2ccccc12` [Compound 108, (E)-N-(4-((R)-3-(5-cyano-4-(1H-indol-3-yl)pyrimidin-2-ylamino)pyrrolidine-1-carbonyl)phenyl)-4-(pyrrolidin-1-yl)but-2-enamide], the IC50 was less than 100 nM at CDK7 and less than 500 nM in the test with Jurkat.
